Data reported in patent US20070292901A1, “Methods and kits for evaluating and measuring the oncological status of tissue samples in three-dimensional physiological matrices” (priority 2006, published 2007).

System: Patient Sample GS-640, kidney tissue, renal cell carcinoma
Assay: Three-dimensional gel matrix screening of chemotherapeutics on patient tumor tissue fragments (cell migration/invasion into the gel)
Format: cell-based, human
Conditions: renal cell carcinoma patient sample GS-640 in gel matrix; for number of cells that have grown and invaded away from the solid tumor fragment / distance of cell migration away from the solid tumor fragment: 5 days after treatment, photomicrograph; for number of cells that have grown and invaded away from the solid tumor fragment: versus control; for response of tumor sample to the drug: treated for 5 days, 37 degree Celsius, 5% CO2, compared with untreated control (FIG. 5)
Description: FIGS. 1-8 are photographic and photomicrographic images which show, by way of example, use of the means and methods of the present invention with respect to a tissue sample removed from a patient. With respect to FIGS. 1-8, Patient Sample GS-640, comprising kidney tissue, was removed from the patient by a surgeon during surgery.
Tissue analysis and screening in accordance with the invention were requested by the surgeon, and proper consent was obtained from the patient prior to surgical removal of a sample quantity of tissue from the RHS Kidney. The patient was diagnosed with renal cell carcinoma. A tissue sample of approximately 1 gram in quantity was removed from the patient during surgery, and was placed into a 25 ml sample jar, and immersed in sterile saline. The tumor tissue was kept at 4 degrees centigrade until processed for the screening of therapeutic compounds in accordance with the means and methods of the invention. All procedures were performed under sterile conditions in a bio-safety laminar flow hood.
FIG. 1: FIG. 1 is a photographic image showing the mechanical division of the sample into portions to be tested. The sample has been prepared by dissecting away any non viable tissue and blood prior to mincing into 1-2 mm pieces using sterile disposable scalpels.
FIG. 2: FIG. 2 is a photographic image showing tumor sample portions which have been placed into each well of a 48 well plate, and been submersed in a gel matrix mixture according to the invention. After insertion of the portions, the mixture was allowed to form into a gel at room temperature for approximately 30 minutes. Once the gel formed around the fully immersed tumor fragments, nutrient rich media was added as a liquid overlay that permeated the entire gel and tumor fragment.
Each different chemotherapy and or dose of chemotherapy was added to a set of 6 wells out of the 48-well plate. A total of 7 different chemotherapies were assessed in this plate. One set of six wells were not treated with drug and thus acted as ‘control conditions’ for tumor fragment growth and invasion. Each of the eight vertical lanes containing six separate wells was marked with a symbol for each chemotherapy/dose used and noted correspondingly on data collection sheets. […] The plates were then placed in a conventional 37 degree Celsius incubator at 5% CO2.
This image is thus representative of all wells at Day 0 with or without chemotherapeutics. Images were made with a 400× magnification phase contrast micrograph using ZEISS camera specs.
Noteworthy is the halo of cells and increased cell density as compared with the results shown at Day 3 of the test. The lines on the images have been drawn to show the distance measurements within which approximately 95% of the migrating cells have migrated away from the margins of the tissue sample.

SMILES	number of cells that have grown and invaded away from the solid tumor fragment	response of tumor sample to the drug	distance of cell migration away from the solid tumor fragment
N.N.[Cl][Pt][Cl] [Cisplatin]	identical in appearance and cell numbers to the control sample	failed chemotherapy	
CC(=O)O[C@@]12CO[C@@H]1C[C@H](O)[C@@]1(C)C(=O)[C@H](O)C3=C(C)[C@@H](OC(=O)[C@H](O)[C@@H](NC(=O)OC(C)(C)C)c4ccccc4)C[C@@](O)([C@@H](OC(=O)c4ccccc4)[C@H]21)C3(C)C [Docetaxol, Docetaxel]	fewer number of invading cells than the control	moderate response	longer migratory distance than treatment with Taxol
CC(=O)O[C@H]1C(=O)[C@@]2(C)[C@H]([C@H](OC(=O)c3ccccc3)[C@]3(O)C[C@H](OC(=O)[C@H](O)[C@@H](NC(=O)c4ccccc4)c4ccccc4)C(C)=C1C3(C)C)[C@]1(OC(C)=O)CO[C@@H]1C[C@@H]2O [Taxol, Paclitaxel]	drop		drop
